Measurements published in publication PMC4775225, “Bromodomain inhibition of the transcriptional coactivators CBP/EP300 as a therapeutic strategy to target the IRF4 network in multiple myeloma” (eLife, 2016).

What was measured:
Assay in all cases: Viability, resazurin, 6 days
Type in all cases: cell-based
[1] = test system: OCI-AML-5; settings: Homo sapiens, 144 h, OCI-AML-5, AML
Procedure: (§1) Cells were plated at 5000–10000 cells per well of 96-well plates containing titrations of the compounds as indicated. After incubation, the cells were incubated with 500 μg/ml resazurin (Sigma) in PBS for 2–8 hr, and fluorescence was measured (Ex 530 nm, Em 590 nm). Cell cycle analysis was performed as described previously ([Mertz et al., 2011]). For visualization, DNA content histograms were generated with GraphPad Prism. Dose-response curves were generated by plotting the normalized percent growth, percent sub-G1 and percent increase in G0/G1 at each dose values. GI50 values were determined as the concentration at which viability was 50% of the DMSO value and calculated by a four-parameter non-linear regression model in GraphPad Prism.

[2] = test system: SKM-1; settings: Homo sapiens, 144 h, SKM-1, AML
Procedure: as §1

[3] = test system: KMS27; settings: Homo sapiens, KMS-27, 144 h, KMS27, myeloma
Procedure: as §1

[4] = test system: ML2; settings: Homo sapiens, ML-2, 144 h, ML2, AML
Procedure: as §1

[5] = test system: OCI-AML-3; settings: Homo sapiens, 144 h, OCI-AML-3, AML
Procedure: as §1

[6] = test system: NB4; settings: Homo sapiens, NB-4, 144 h, NB4, APL
Procedure: as §1

[7] = test system: KMS20; settings: Homo sapiens, KMS-20, 144 h, KMS20, myeloma
Procedure: as §1

[8] = test system: Tanoue; settings: Homo sapiens, 144 h, ALL
Procedure: as §1

[9] = test system: VAL; settings: Homo sapiens, 144 h, ALL
Procedure: as §1

[10] = test system: REH; settings: Homo sapiens, 144 h, ALL
Procedure: as §1

[11] = test system: Jurkat; settings: Homo sapiens, 144 h, ALL
Procedure: as §1

[12] = test system: KMS34; settings: Homo sapiens, KMS-34, 144 h, KMS34, myeloma
Procedure: as §1

[13] = test system: SET2; settings: Homo sapiens, SET-2, 144 h, SET2 D6, AML
Procedure: as §1

[14] = test system: SKNO-1; settings: Homo sapiens, 144 h, SKNO-1, AML
Procedure: as §1

[15] = test system: Kasumi-1; settings: Homo sapiens, 144 h, Kasumi-1, AML
Procedure: as §1

[16] = test system: 380; settings: Homo sapiens, 144 h, 380, ALL
Procedure: as §1

[17] = test system: KOPN-8; settings: Homo sapiens, 144 h, KOPN-8, ALL
Procedure: as §1

[18] = test system: PL21; settings: Homo sapiens, PL-21, 144 h, PL21, APL
Procedure: as §1

[19] = test system: NOMO-1; settings: Homo sapiens, 144 h, NOMO-1, AML
Procedure: as §1

[20] = test system: Molt-16; settings: Homo sapiens, 144 h, Molt-16, ALL
Procedure: as §1

[21] = test system: MV411; settings: Homo sapiens, MV4-11, 144 h, MV411, AML
Procedure: as §1

[22] = test system: KMS21BM; settings: Homo sapiens, KMS-21BM, 144 h, myeloma
Procedure: as §1

[23] = test system: KMS-11; settings: Homo sapiens, 144 h, KMS-11, myeloma
Procedure: as §1

[24] = test system: SD-1; settings: Homo sapiens, 144 h, SD-1, ALL
Procedure: as §1

[25] = test system: ROS 50; settings: Homo sapiens, 144 h, ROS 50, ALL
Procedure: as §1

[26] = test system: EJM; settings: Homo sapiens, 144 h, myeloma
Procedure: as §1

[27] = test system: K562; settings: Homo sapiens, 144 h, K562, CML
Procedure: as §1

[28] = test system: KMS12PE; settings: Homo sapiens, KMS-12-PE, 144 h, myeloma
Procedure: as §1

[29] = test system: MN-60; settings: Homo sapiens, 144 h, MN-60, ALL
Procedure: as §1

[30] = test system: OCI-AML-2; settings: Homo sapiens, OCI-AML2, 144 h, OCI-AML-2, AML
Procedure: as §1

[31] = test system: KMS28PE; settings: Homo sapiens, KMS-28PE, 144 h, myeloma
Procedure: as §1

[32] = test system: HL60; settings: Homo sapiens, HL-60, 144 h, HL60, APL
Procedure: as §1

[33] = test system: Kasumi-2; settings: Homo sapiens, 144 h, Kasumi-2, AML
Procedure: as §1

[34] = test system: JJN3; settings: Homo sapiens, JJN-3, 144 h, JJN3, myeloma
Procedure: as §1

[35] = test system: KMS12BM; settings: Homo sapiens, KMS-12-BM, 144 h, myeloma
Procedure: as §1

[36] = test system: MOLM-13; settings: Homo sapiens, 144 h, MOLM-13, AML
Procedure: as §1

[37] = test system: U266; settings: Homo sapiens, U-266, 144 h, U266, myeloma
Procedure: as §1

[38] = test system: KMS26; settings: Homo sapiens, KMS-26, 144 h, KMS26, myeloma
Procedure: as §1

[39] = test system: SEM cells; settings: Homo sapiens, 144 h, ALL
Procedure: as §1

CCC(=O)N1CCOc2c(cc(-c3ccc(OC)c(OC)c3)cc2OC[C@H]2CCCN(C)C2)C1 [I-CBP112]
GI50 [1]: > 20 µM
GI50 [2]: 15.9 µM
GI50 [3]: > 20 µM
GI50 [4]: > 20 µM
GI50 [5]: 5.51 µM
GI50 [6]: 17.8 µM
GI50 [7]: 2970 nM
GI50 [8]: > 20 µM
GI50 [9]: 14.2 µM
GI50 [10]: > 20 µM
GI50 [11]: > 20 µM
GI50 [12]: 2530 nM
GI50 [13]: 12.6 µM
GI50 [14]: 9.5 µM
GI50 [15]: 3220 nM
GI50 [16]: > 20 µM
GI50 [17]: 18.5 µM
GI50 [18]: > 20 µM
GI50 [19]: 8.7 µM
GI50 [20]: 17.6 µM
GI50 [21]: 13.1 µM
GI50 [22]: 3260 nM
GI50 [23]: 16.3 µM
GI50 [24]: 13.5 µM
GI50 [25]: > 20 µM
GI50 [26]: 14.6 µM
GI50 [27]: > 20 µM
GI50 [28]: 12.8 µM
GI50 [29]: > 20 µM
GI50 [30]: 9.7 µM
GI50 [31]: > 20 µM
GI50 [32]: 4.55 µM
GI50 [33]: 8.12 µM
GI50 [34]: 11.2 µM
GI50 [35]: 2360 nM
GI50 [36]: 15.7 µM
GI50 [37]: 7.61 µM
GI50 [38]: 2300 nM
GI50 [39]: 5.34 µM

COc1ccc(CCc2nc3cc(-c4c(C)noc4C)ccc3n2C[C@H](C)N2CCOCC2)cc1Cl [SGC-CBP30]
GI50 [1]: > 20 µM
GI50 [2]: 6.61 µM
GI50 [3]: 11.8 µM
GI50 [4]: 6.65 µM
GI50 [5]: 3.49 µM
GI50 [6]: 3.93 µM
GI50 [7]: 1050 nM
GI50 [8]: 8.88 µM
GI50 [9]: 7.54 µM
GI50 [10]: 18.5 µM
GI50 [11]: 12 µM
GI50 [12]: 1300 nM
GI50 [13]: 4.47 µM
GI50 [14]: 4.8 µM
GI50 [15]: 1950 nM
GI50 [16]: 15.6 µM
GI50 [17]: 7.23 µM
GI50 [18]: 17 µM
GI50 [19]: 7.4 µM
GI50 [20]: 7.98 µM
GI50 [21]: 3.33 µM
GI50 [22]: 1270 nM
GI50 [23]: 2.41 µM
GI50 [24]: 7.28 µM
GI50 [25]: 16.4 µM
GI50 [26]: 3.87 µM
GI50 [27]: 8.86 µM
GI50 [28]: 5.34 µM
GI50 [29]: 12.3 µM
GI50 [30]: 3.68 µM
GI50 [31]: 17.9 µM
GI50 [32]: 4.01 µM
GI50 [33]: 3.77 µM
GI50 [34]: 2.53 µM
GI50 [35]: 1300 nM
GI50 [36]: 6.93 µM
GI50 [37]: 2.63 µM
GI50 [38]: 1340 nM
GI50 [39]: 2.83 µM
